Data as given in article PMC5785997, “2-Phenylquinazolinones as dual-activity tankyrase-kinase inhibitors” (Scientific Reports, 2018).

Experiments:
GSK3β = GSK3β (Homo sapiens, UniProt P49841); test: Kinase functional assay (mobility shift), GSK3β; assay type: biochemical; details: read-out: GSK3β (% Inhib.); for inhibition at 1 µM: 1 µM compound, Table S3; for inhibition at 10 µM: 10 µM compound, Table S4
ARTD10/PARP10 = target: T1, ARTD10/PARP10 (Homo sapiens, UniProt Q53GL7); test: ARTD profiling, ARTD10
T1 sequence (Q53GL7 806-1025 limits assumed): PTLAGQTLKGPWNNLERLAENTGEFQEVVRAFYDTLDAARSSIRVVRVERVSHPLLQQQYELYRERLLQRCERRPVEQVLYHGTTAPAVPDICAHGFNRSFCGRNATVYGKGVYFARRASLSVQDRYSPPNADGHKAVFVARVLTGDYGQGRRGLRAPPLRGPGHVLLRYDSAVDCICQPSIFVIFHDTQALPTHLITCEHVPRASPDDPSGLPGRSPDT

ARTD7/PARP15 = target: T2, ARTD7/PARP15 (Homo sapiens, UniProt Q460N3); test: ARTD profiling, ARTD7
T2 sequence (Q460N3 482-678 limits assumed): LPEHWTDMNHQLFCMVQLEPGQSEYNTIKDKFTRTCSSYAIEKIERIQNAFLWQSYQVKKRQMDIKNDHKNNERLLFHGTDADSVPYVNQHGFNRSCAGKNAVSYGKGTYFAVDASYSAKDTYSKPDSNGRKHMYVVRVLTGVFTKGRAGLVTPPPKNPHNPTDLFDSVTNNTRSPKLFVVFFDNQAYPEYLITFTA

ERK2 = ERK2 (Homo sapiens, UniProt P28482); test: Kinase functional assay (mobility shift), ERK2 (p42); assay type: biochemical; details: read-out: ERK2 (% Inhib.); for inhibition at 1 µM: 1 µM compound, Table S3; for inhibition at 10 µM: 10 µM compound, Table S4
ERK2, sequence (P28482 whole entry, species assumed): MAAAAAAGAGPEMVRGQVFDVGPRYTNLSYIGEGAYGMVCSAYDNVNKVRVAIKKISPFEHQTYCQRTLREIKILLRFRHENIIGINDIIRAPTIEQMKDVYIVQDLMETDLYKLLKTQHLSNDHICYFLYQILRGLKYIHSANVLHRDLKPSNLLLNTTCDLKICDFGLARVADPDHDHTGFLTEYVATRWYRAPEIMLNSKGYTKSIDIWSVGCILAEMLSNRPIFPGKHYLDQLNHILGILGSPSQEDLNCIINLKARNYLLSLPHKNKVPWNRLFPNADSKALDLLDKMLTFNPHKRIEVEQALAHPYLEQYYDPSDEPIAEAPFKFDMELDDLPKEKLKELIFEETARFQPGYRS

CDK9 = CDK9 (Homo sapiens, UniProt P50750); test: Kinase functional assay (mobility shift), CDK9; assay type: biochemical; details: read-out: CDK9 (% Inhib.); for inhibition at 1 µM: 1 µM compound, Table S3; for inhibition at 10 µM: 10 µM compound, Table S4
CDK9, sequence (P50750 whole entry, species assumed): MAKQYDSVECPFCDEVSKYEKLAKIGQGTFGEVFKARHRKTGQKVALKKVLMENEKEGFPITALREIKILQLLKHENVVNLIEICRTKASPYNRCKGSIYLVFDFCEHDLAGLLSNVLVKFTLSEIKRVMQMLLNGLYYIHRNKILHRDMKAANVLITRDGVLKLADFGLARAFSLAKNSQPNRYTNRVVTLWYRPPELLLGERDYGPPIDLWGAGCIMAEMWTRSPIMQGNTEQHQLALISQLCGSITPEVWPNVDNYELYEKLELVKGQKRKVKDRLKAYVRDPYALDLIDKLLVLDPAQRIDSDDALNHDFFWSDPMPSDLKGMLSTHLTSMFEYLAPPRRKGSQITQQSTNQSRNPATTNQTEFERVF
CDK9, sequence (O60563 whole entry partner, species assumed): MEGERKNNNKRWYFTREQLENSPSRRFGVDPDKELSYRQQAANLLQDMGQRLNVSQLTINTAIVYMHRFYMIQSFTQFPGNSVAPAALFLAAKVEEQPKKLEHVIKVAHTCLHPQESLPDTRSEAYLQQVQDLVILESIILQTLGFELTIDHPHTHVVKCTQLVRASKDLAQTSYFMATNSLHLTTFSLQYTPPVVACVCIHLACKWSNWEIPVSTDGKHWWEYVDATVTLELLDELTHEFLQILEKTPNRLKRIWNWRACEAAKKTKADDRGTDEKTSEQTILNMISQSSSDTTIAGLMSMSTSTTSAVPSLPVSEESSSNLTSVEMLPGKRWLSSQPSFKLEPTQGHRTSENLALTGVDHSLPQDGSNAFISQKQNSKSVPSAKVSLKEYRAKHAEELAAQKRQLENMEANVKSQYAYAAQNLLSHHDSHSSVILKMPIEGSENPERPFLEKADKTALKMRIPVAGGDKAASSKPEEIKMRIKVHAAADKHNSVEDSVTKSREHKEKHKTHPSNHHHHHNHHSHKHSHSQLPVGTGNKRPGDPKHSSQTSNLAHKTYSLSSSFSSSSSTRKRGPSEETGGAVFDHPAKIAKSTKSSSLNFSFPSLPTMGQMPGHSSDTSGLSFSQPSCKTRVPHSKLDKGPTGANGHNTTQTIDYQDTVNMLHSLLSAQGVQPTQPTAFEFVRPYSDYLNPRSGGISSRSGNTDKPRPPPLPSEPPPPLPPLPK

ARTD4/PARP4 = target: T3, ARTD4/PARP4 (Homo sapiens, UniProt Q9UKK3); test: ARTD profiling, ARTD4
T3 sequence (Q9UKK3 369-573 limits assumed): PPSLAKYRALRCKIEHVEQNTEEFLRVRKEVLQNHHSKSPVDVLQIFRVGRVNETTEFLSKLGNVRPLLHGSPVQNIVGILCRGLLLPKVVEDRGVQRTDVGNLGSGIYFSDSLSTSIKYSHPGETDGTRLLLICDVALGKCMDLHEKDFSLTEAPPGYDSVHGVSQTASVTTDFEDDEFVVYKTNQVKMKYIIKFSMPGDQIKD

ARTD8/PARP14 = ARTD8/PARP14 (Homo sapiens, UniProt Q460N5); test: ARTD profiling, ARTD8
ARTD15/PARP16 = target: T4, ARTD15/PARP16 (Homo sapiens, UniProt Q8N5Y8); test: ARTD profiling, ARTD15
T4 sequence (Q8N5Y8 1-322): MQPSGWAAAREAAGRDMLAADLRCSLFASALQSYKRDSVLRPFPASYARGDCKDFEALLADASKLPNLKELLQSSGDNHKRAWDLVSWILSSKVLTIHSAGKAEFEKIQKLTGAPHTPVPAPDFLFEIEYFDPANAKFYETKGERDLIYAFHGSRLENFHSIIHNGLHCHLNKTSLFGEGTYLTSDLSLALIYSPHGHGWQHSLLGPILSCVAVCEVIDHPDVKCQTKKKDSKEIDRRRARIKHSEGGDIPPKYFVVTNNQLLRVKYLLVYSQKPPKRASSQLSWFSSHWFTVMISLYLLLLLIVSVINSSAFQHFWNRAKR

ARTD1/PARP1 = ARTD1/PARP1 (Homo sapiens, UniProt P09874); test: ARTD profiling, ARTD1
ARTD1/PARP1, sequence (P09874 whole entry): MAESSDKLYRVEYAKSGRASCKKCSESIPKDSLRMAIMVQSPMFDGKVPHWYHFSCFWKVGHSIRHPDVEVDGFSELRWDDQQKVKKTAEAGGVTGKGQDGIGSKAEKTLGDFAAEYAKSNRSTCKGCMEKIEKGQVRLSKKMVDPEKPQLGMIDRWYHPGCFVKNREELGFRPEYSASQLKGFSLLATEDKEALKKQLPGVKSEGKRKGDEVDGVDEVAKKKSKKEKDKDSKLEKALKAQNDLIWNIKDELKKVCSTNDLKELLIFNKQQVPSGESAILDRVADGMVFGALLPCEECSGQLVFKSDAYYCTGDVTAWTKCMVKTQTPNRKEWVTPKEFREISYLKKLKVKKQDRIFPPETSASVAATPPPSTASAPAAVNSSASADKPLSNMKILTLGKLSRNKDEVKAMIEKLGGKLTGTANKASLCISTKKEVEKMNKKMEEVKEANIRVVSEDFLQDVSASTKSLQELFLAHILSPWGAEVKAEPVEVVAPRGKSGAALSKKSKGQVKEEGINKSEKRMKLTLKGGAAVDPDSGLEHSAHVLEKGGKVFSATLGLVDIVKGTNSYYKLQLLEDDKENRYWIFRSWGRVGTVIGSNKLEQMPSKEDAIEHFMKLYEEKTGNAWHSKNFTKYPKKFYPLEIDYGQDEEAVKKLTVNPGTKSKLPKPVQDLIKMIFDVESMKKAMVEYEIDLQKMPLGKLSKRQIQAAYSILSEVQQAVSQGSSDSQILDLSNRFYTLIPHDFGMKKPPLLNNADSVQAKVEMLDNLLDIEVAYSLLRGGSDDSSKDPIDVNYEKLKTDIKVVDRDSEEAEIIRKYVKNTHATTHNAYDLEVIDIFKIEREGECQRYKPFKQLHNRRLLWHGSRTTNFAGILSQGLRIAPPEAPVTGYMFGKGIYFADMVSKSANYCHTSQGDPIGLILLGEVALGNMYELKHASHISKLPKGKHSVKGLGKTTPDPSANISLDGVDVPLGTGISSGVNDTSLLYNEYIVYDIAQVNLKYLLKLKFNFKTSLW

p38α = p38α (Homo sapiens, UniProt Q16539); test: Kinase functional assay (mobility shift), p38α; assay type: biochemical; details: read-out: p38α (% Inhib.); for inhibition at 1 µM: 1 µM compound, Table S3; for inhibition at 10 µM: 10 µM compound, Table S4
p38α, sequence (Q16539 whole entry): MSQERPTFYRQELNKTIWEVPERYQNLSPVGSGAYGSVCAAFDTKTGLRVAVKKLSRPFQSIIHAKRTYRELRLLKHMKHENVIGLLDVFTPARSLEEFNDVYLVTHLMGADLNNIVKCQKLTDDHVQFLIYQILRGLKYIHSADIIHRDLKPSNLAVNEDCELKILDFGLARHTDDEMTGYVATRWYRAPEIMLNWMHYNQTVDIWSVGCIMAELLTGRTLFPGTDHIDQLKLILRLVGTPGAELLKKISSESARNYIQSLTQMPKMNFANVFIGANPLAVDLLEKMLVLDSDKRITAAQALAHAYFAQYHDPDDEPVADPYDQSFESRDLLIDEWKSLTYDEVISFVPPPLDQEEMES

ARTD3/PARP3 = target: T5, ARTD3/PARP3 (Homo sapiens, UniProt Q9Y6F1); test: ARTD profiling, ARTD3; assay type: biochemical; details: NAD+ 500 nM
T5 sequence (Q9Y6F1 1-533): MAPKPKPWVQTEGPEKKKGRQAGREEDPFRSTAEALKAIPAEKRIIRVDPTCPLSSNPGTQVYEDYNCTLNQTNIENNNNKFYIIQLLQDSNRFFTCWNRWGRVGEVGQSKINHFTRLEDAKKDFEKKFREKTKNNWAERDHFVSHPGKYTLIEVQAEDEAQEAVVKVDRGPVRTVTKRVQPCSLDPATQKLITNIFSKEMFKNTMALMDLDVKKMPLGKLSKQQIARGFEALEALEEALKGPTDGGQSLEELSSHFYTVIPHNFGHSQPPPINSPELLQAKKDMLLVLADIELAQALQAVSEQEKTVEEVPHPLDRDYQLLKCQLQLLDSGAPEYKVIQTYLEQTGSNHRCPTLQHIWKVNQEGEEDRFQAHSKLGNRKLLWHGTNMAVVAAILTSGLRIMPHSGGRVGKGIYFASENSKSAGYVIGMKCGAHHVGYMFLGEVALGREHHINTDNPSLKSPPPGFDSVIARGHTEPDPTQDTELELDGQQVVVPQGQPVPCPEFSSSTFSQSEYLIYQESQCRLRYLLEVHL
Experimental: (§1) Protein (nM) NAD+ (nM) Incubation Buffer
(§2) Kinase [ATP] Substrate Incubation Reaction buffer

Akt = test: Kinase functional assay (mobility shift), Akt; assay type: biochemical
ARTD5/TNKS1 = ARTD5/TNKS1 (Homo sapiens, UniProt O95271); test: NAD+ quantification activity assay, TNKS1; assay type: biochemical; details: NAD+ 500 nM
ARTD5/TNKS1, sequence (O95271 1112-1317): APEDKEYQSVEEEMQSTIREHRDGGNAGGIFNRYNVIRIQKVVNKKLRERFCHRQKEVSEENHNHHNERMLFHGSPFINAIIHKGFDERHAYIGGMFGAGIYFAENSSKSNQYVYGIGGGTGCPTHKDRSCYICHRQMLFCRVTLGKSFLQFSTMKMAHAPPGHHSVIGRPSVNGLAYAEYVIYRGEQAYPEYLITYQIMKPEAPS
Experimental: as §1, §2

ARTD12/PARP12 = target: T6, ARTD12/PARP12 (Homo sapiens, UniProt Q9H0J9); test: ARTD profiling, ARTD12
T6 sequence (Q9H0J9 484-698 limits assumed): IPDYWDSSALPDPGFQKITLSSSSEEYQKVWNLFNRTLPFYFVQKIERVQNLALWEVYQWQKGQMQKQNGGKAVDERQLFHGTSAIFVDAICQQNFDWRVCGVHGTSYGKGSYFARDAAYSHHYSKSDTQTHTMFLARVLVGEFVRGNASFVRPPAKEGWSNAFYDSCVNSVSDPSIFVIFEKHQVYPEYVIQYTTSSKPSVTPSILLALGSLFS

GSK3β, sequence (P49841 whole entry, species assumed): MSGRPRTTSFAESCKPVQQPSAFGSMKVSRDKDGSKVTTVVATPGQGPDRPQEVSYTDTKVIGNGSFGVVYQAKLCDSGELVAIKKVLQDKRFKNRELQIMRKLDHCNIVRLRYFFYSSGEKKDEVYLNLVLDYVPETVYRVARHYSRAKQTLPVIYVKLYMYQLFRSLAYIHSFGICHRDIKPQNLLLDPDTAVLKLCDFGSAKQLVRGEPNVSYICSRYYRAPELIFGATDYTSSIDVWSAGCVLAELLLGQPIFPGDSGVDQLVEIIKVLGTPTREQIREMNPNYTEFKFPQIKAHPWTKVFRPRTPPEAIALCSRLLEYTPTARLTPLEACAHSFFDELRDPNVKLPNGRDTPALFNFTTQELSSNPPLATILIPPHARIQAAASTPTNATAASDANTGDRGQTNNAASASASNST

Row | inhibition at 1 µM (GSK3β) | inhibition at 10 µM (GSK3β) | IC50 (ARTD10/PARP10) | IC50 (ARTD7/PARP15) | inhibition at 1 µM (ERK2) | inhibition at 10 µM (ERK2) | inhibition at 1 µM (CDK9) | inhibition at 10 µM (CDK9) | IC50 (ARTD4/PARP4) | IC50 (ARTD8/PARP14) | IC50 (ARTD15/PARP16) | IC50 (ARTD1/PARP1) | inhibition at 1 µM (p38α) | inhibition at 10 µM (p38α) | IC50 (ARTD3/PARP3) | AKT (% Inhib.) (Akt; 1 µM compound, Table S3) | AKT (% Inhib.) (Akt; 10 µM compound, Table S4) | IC50 (ARTD5/TNKS1) | IC50 (ARTD12/PARP12) | SMILES
1 | 1 ± 1% | 11 ± 3% | > 10 µM | > 10 µM | 2 ± 1% | 3 ± 1% | 12 ± 4% | 31 ± 4% | 12 µM | > 10 µM | > 10 µM | 18 µM | 3 ± 1% | 3 ± 3% | 23 µM | 1 ± 1% | 2 ± 2% | 0.03 µM | > 10 µM | O=c1[nH]c(-c2ccc(N3CCCCC3)cc2)nc2ccccc12 [Compound 30]
2 | 1 ± 1% | 4 ± 4% | > 10 µM | > 10 µM | 2 ± 1% | 18 ± 3% | 13 ± 4% | 16 ± 3% | 5.5 µM | > 10 µM | > 10 µM | 30 µM | 1 ± 1% | 20 ± 2% | 2.1 µM | 1 ± 1% | 48 ± 4% | 0.011 µM | > 10 µM | CCN(CC)c1ccc(-c2nc3ccccc3c(=O)[nH]2)cc1 [Compound 32]
